Experimental data: patent US20240287154A1, “MC3R AGONIST PEPTIDES” (The Regents of the University of Michigan, priority 2021, published 2024)
Non-standard residues stand in square brackets, D forms with d. Residues, ends and D or L forms follow the SMILES beside them. Phe(4-Cl) = N[C@@H](Cc1ccc(Cl)cc1)C(=O)O; Phe(4-I) = N[C@@H](Cc1ccc(I)cc1)C(=O)O; NMeH = CN[C@@H](Cc1c[nH]cn1)C(=O)O; NMeK = CN[C@@H](CCCCN)C(=O)O; dNle = CCCC[C@@H](N)C(=O)O; Nle = CCCC[C@H](N)C(=O)O; Aib = CC(C)(N)C(=O)O

Each compound was assayed against human MC4R (Homo sapiens, UniProt P32245) (assay: Intracellular cAMP levels in live cells, MC3R selectivity relative to MC4R). Conditions: cAMP assays in human MC3R and human MC4R stable cell lines.
human MC4R, sequence (P32245 whole entry): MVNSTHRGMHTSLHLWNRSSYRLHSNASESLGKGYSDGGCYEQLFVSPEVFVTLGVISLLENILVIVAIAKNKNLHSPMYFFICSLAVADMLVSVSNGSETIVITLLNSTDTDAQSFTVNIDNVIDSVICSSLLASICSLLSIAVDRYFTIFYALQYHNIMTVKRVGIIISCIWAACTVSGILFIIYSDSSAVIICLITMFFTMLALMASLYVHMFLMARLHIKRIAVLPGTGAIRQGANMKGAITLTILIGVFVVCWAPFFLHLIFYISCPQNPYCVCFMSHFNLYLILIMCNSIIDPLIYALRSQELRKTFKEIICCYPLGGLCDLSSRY
Format: cell-based

Point of comparison: `CCCC[C@H](NC(=O)[C@@H](NC(=O)[C@H](N)Cc1ccc(O)cc1)C(C)C)C(=O)N[C@H](C)C(=O)N[C@@H](Cc1c[nH]cn1)C(=O)N[C@@H](Cc1ccc(I)cc1)C(=O)N[C@@H](CCCNC(=N)N)C(=O)N[C@H](Cc1c[nH]c2ccccc12)C(=O)N[C@@H](CC(=O)O)C(N)=O` [CTX-1171, D-Tyr-Val-Nle-D-Ala-His-Phe(4-I)-Arg-D-Trp-Asp] (H-[dY]V[Nle][dA]H[Phe(4-I)]R[dW]D-NH2), “MC3R selectivity (relative to MC4R)” value 234. Against it:
- CCCC[C@H](NC(C)=O)C(=O)N[C@H](C)C(=O)N[C@@H](Cc1c[nH]cn1)C(=O)N[C@@H](Cc1ccccc1)C(=O)N[C@@H](CCCNC(=N)N)C(=O)N[C@H](Cc1c[nH]c2ccccc12)C(=O)NCC(N)=O [CTX-1540, Nle-D-Ala-His-Phe-Arg-D-Trp-Gly] (Ac-[Nle][dA]HFR[dW]G-NH2) — lower, 11
- CCCC[C@H](NC(=O)[C@@H](NC(=O)[C@H](N)Cc1ccc(O)cc1)C(C)C)C(=O)N[C@H](C)C(=O)N[C@@H](Cc1c[nH]cn1)C(=O)N[C@@H](Cc1ccccc1)C(=O)N[C@@H](CCCNC(=N)N)C(=O)N[C@H](Cc1c[nH]c2ccccc12)C(=O)N[C@@H](CC(=O)O)C(N)=O [CTX-1142, D-Tyr-Val-Nle-D-Ala-His-Phe-Arg-D-Trp-Asp] (H-[dY]V[Nle][dA]HFR[dW]D-NH2) — lower, 54
- CCCC[C@H](NC(=O)[C@@H](NC(=O)[C@@H](Cc1ccc(O)cc1)NC(=O)CNC(=O)COCCOCCNC(=O)CNC(=O)CCc1ccc(I)cc1)C(C)C)C(=O)N[C@H](C)C(=O)N[C@@H](Cc1c[nH]cn1)C(=O)N[C@@H](Cc1ccccc1)C(=O)N[C@@H](CCCNC(=N)N)C(=O)N[C@H](Cc1c[nH]c2ccccc12)C(=O)N[C@@H](CC(=O)O)C(=O)N[C@H](CCCNC(=N)N)C(=O)N[C@@H](Cc1ccccc1)C(=O)NCC(=O)O [CTX-1156, Gly-D-Tyr-Val Nle-D-Ala-His-Phe-Arg-D-Trp-Asp-D-Arg-Phe-Gly] — lower, 86
- CCCC[C@H](NC(C)=O)C(=O)N[C@H](C)C(=O)N[C@@H](Cc1c[nH]cn1)C(=O)N[C@@H](Cc1ccccc1)C(=O)N[C@@H](CCCNC(=N)N)C(=O)N[C@H](Cc1c[nH]c2ccccc12)C(=O)N[C@@H](CC(=O)O)C(N)=O [CTX-1123, Nle-D-Ala-His-Phe-Arg-D-Trp-Asp] (Ac-[Nle][dA]HFR[dW]D-NH2) — lower, 28
- CCCC[C@H](NC(C)=O)C(=O)NC(C)(C)C(=O)N[C@@H](Cc1c[nH]cn1)C(=O)N[C@@H](Cc1ccccc1)C(=O)N[C@@H](CCCNC(=N)N)C(=O)N[C@H](Cc1c[nH]c2ccccc12)C(=O)N[C@@H](CC(=O)O)C(=O)N[C@@H](CCCNC(=N)N)C(=O)N[C@@H](Cc1ccccc1)C(=O)NCC(=O)O [CTX-1143, Nle-Aib-His-Phe-Arg-D-Trp-Asp-Arg-Phe-Gly] (Ac-[Nle][Aib]HFR[dW]DRFG-OH) — higher, 3544
- CCCC[C@H](NC(C)=O)C(=O)N[C@H](CCCC)C(=O)N[C@@H](Cc1c[nH]cn1)C(=O)N[C@@H](Cc1ccccc1)C(=O)N[C@@H](CCCNC(=N)N)C(=O)N[C@H](Cc1c[nH]c2ccccc12)C(=O)N[C@@H](CC(=O)O)C(=O)N[C@@H](CCCNC(=N)N)C(=O)N[C@@H](Cc1ccccc1)C(=O)NCC(=O)O [CTX-1182, Nle-D-Nle-His-Phe-Arg-D-Trp-Asp-Arg-Phe-Gly] (Ac-[Nle][dNle]HFR[dW]DRFG-OH) — higher, 1406
- CCCC[C@H](NC(C)=O)C(=O)N[C@H](C)C(=O)N[C@@H](Cc1c[nH]cn1)C(=O)N[C@@H](Cc1ccccc1)C(=O)N[C@@H](CCCNC(=N)N)C(=O)N[C@H](Cc1c[nH]c2ccccc12)C(=O)N[C@@H](CCCCN)C(=O)N[C@@H](CCCNC(=N)N)C(=O)N[C@@H](Cc1ccccc1)C(=O)NCC(=O)O [CTX-1533, Nle-D-Ala-His-Phe-Arg-D-Trp-Lys-Arg-Phe-Gly] (Ac-[Nle][dA]HFR[dW]KRFG-OH) — higher, 314
- CCCC[C@H](NC(C)=O)C(=O)N[C@H](C)C(=O)N[C@@H](Cc1c[nH]cn1)C(=O)N[C@@H](Cc1ccccc1)C(=O)N[C@@H](CCCNC(=N)N)C(=O)N[C@H](Cc1c[nH]c2ccccc12)C(=O)N[C@@H](CCCC)C(=O)N[C@@H](CCCNC(=N)N)C(=O)N[C@@H](Cc1ccccc1)C(=O)NCC(=O)O [CTX-1532, Nle-D-Ala-His-Phe-Arg-D-Trp-Nle-Arg-Phe-Gly] (Ac-[Nle][dA]HFR[dW][Nle]RFG-OH) — lower, 184
- CCCC[C@H](NC(C)=O)C(=O)N[C@H](C)C(=O)N[C@@H](Cc1c[nH]cn1)C(=O)N[C@@H](Cc1ccccc1)C(=O)N[C@@H](CCCNC(=N)N)C(=O)N[C@H](Cc1c[nH]c2ccccc12)C(=O)N[C@@H](CC(=O)O)C(=O)N[C@@H](C)C(=O)N[C@@H](Cc1ccccc1)C(=O)NCC(=O)O [CTX-1534, Nle-D-Ala-His-Phe-Arg-D-Trp-Asp-Ala-Phe-Gly] (Ac-[Nle][dA]HFR[dW]DAFG-OH) — lower, 186
- CC(=O)N[C@H](C(=O)NCC(=O)N[C@@H](Cc1c[nH]cn1)C(=O)N[C@@H](Cc1ccccc1)C(=O)N[C@@H](CCCNC(=N)N)C(=O)N[C@H](Cc1c[nH]c2ccccc12)C(=O)N[C@@H](CC(=O)O)C(N)=O)[C@@H](C)O [CTX-1112, Thr-Gly-His-Phe-Arg-D-Trp-Asp] (Ac-TGHFR[dW]D-NH2) — lower, 8.6
- CCCC[C@H](NC(C)=O)C(=O)N[C@H](C)C(=O)N(C)[C@@H](Cc1c[nH]cn1)C(=O)N[C@@H](Cc1ccccc1)C(=O)N[C@@H](CCCNC(=N)N)C(=O)N[C@H](Cc1c[nH]c2ccccc12)C(=O)N[C@@H](CC(=O)O)C(=O)N[C@@H](CCCNC(=N)N)C(=O)N[C@@H](Cc1ccccc1)C(=O)NCC(=O)O [CTX-1186, Nle-D-Ala-NMe-His-Phe-Arg-D-Trp-Asp-Arg-Phe-Gly] (Ac-[Nle][dA][NMeH]FR[dW]DRFG-OH) — higher, 1884
- CCCC[C@H](NC(C)=O)C(=O)N[C@H](C)C(=O)N[C@@H](Cc1c[nH]cn1)C(=O)N[C@@H](Cc1ccc(Cl)cc1)C(=O)N[C@@H](CCCNC(=N)N)C(=O)N[C@H](Cc1c[nH]c2ccccc12)C(=O)N[C@@H](CC(=O)O)C(=O)N[C@@H](CCCNC(=N)N)C(=O)N[C@@H](Cc1ccccc1)C(=O)NCC(=O)O [CTX-1166, Nle-D-Ala-His-Phe(4-Cl)-Arg-D-Trp-Asp-Arg-Phe-Gly] (Ac-[Nle][dA]H[Phe(4-Cl)]R[dW]DRFG-OH) — higher, 3099
- CCCC[C@H](NC(C)=O)C(=O)N1CCC[C@@H]1C(=O)N[C@@H](Cc1c[nH]cn1)C(=O)N[C@@H](Cc1ccccc1)C(=O)N[C@@H](CCCNC(=N)N)C(=O)N[C@H](Cc1c[nH]c2ccccc12)C(=O)N[C@@H](CC(=O)O)C(=O)N[C@@H](CCCNC(=N)N)C(=O)N[C@@H](Cc1ccccc1)C(=O)NCC(=O)O [CTX-1184, Nle-D-Pro-His-Phe-Arg-D-Trp-Asp-Arg-Phe-Gly] (Ac-[Nle][dP]HFR[dW]DRFG-OH) — lower, 28
- CCCC[C@H](NC(C)=O)C(=O)N[C@H](C)C(=O)N[C@@H](Cc1c[nH]cn1)C(=O)N[C@@H](Cc1ccc(I)cc1)C(=O)N[C@H](CCCNC(=N)N)C(=O)N[C@@H](Cc1c[nH]c2ccccc12)C(=O)N[C@@H](CC(=O)O)C(=O)N[C@@H](CCCNC(=N)N)C(=O)N[C@@H](Cc1ccccc1)C(=O)NCC(=O)O [CTX-1501, Nle-D-Ala-His-Phe(4-I)-D-Arg-Trp-Asp-Arg-Phe-Gly] (Ac-[Nle][dA]H[Phe(4-I)][dR]WDRFG-OH) — lower, 0.01
- CCCC[C@H](NC(C)=O)C(=O)N[C@H](C)C(=O)N(C)[C@@H](CCCCN)C(=O)N[C@@H](Cc1ccccc1)C(=O)N[C@@H](CCCNC(=N)N)C(=O)N[C@H](Cc1c[nH]c2ccccc12)C(=O)N[C@@H](CC(=O)O)C(=O)N[C@@H](CCCNC(=N)N)C(=O)N[C@@H](Cc1ccccc1)C(=O)NCC(=O)O [CTX-1189, Nle-D-Ala-NMe-Lys-Phe-Arg-D-Trp-Asp-Arg-Phe-Gly] (Ac-[Nle][dA][NMeK]FR[dW]DRFG-OH) — lower, 1
- CCCC[C@H](NC(C)=O)C(=O)N[C@H](C)C(=O)N[C@@H](Cc1c[nH]cn1)C(=O)N[C@@H](Cc1ccccc1)C(=O)N[C@@H](CCCNC(=N)N)C(=O)N[C@H](Cc1c[nH]c2ccccc12)C(N)=O [CTX-1539, Nle-D-Ala-His-Phe-Arg-D-Trp] (Ac-[Nle][dA]HFR[dW]-NH2) — lower, 16
- CC(=O)N[C@@H](CO)C(=O)NCC(=O)N[C@@H](Cc1c[nH]cn1)C(=O)N[C@H](Cc1ccccc1)C(=O)N[C@@H](CCCNC(=N)N)C(=O)N[C@H](Cc1c[nH]c2ccccc12)C(=O)N[C@@H](CC(=O)O)C(N)=O [CTX-1111, Ser-Gly-His-D-Phe-Arg-D-Trp-Asp] (Ac-SGH[dF]R[dW]D-NH2) — lower, 0.1
- CCCC[C@H](NC(C)=O)C(=O)N[C@@H](C(=O)N[C@@H](Cc1c[nH]cn1)C(=O)N[C@@H](Cc1ccccc1)C(=O)N[C@@H](CCCNC(=N)N)C(=O)N[C@H](Cc1c[nH]c2ccccc12)C(=O)N[C@@H](CC(=O)O)C(=O)N[C@@H](CCCNC(=N)N)C(=O)N[C@@H](Cc1ccccc1)C(=O)NCC(=O)O)C(C)C [CTX-1181, Nle-D-Val-His-Phe-Arg-D-Trp-Asp-Arg-Phe-Gly] (Ac-[Nle][dV]HFR[dW]DRFG-OH) — higher, 718
- CCCC[C@H](NC(C)=O)C(=O)N[C@H](C)C(=O)N[C@@H](Cc1c[nH]cn1)C(=O)N[C@@H](Cc1ccccc1)C(=O)N[C@@H](CCCNC(=N)N)C(=O)N[C@H](Cc1c[nH]c2ccccc12)C(=O)N[C@@H](Cc1ccccc1)C(N)=O [CTX-1541, Nle-D-Ala-His-Phe-Arg-D-Trp-Phe] (Ac-[Nle][dA]HFR[dW]F-NH2) — lower, 9

With `CCCC[C@H](NC(C)=O)C(=O)N[C@H](C)C(=O)N[C@@H](Cc1c[nH]cn1)C(=O)N[C@@H](Cc1ccccc1)C(=O)N[C@@H](CCCNC(=N)N)C(=O)N[C@H](Cc1c[nH]c2ccccc12)C(=O)N[C@@H](CC(=O)O)C(=O)N[C@@H](CCCNC(=N)N)C(=O)N[C@@H](Cc1ccccc1)C(=O)N[C@H](C(=O)O)C(C)C` [CTX-1538, Nle-D-Ala-His-Phe-Arg-D-Trp-Asp-Arg-Phe-Val] (Ac-[Nle][dA]HFR[dW]DRFV-OH) the “MC3R selectivity (relative to MC4R)” value was 1,276.
